# According to US12178790B2, “Antibacterial compound isolated from Psiloxylon mauritianum and its derivatives” (CENTRE NATIONAL DE LA RECHERCHE SCIENTIFIQUE(CNRS), priority 2021, dated 2024):
# Where two headings read alike, the source gives them in different places.
# Key:
# [1] = system: Staphylococcus aureus (ATCC 29213); assay: MIC determination (microdilution), S. aureus; type: cell-based; conditions: for MIC: Staphylococcus aureus, ATCC29213
# Procedure: (§1) The crude extract and pure compounds isolated were tested against human pathogenic microorganisms, including the bacterium Staphylococcus aureus (ATCC 29213), MRSA (ATCC 33591), Candida albicans (ATCC 10213), Trichophyton rubrum (SNB-TR1) and P. aeruginosa ATCC 27853 to screen their antibacterial and antifungal activities. All ATCC strains were purchased from the Pasteur Institute. The clinical isolate was provided by Prof. Philippe Loiseau, Université Paris Sud. The ITS sequence was deposited in the NCBI GenBank database under the registry number KC692746 corresponding to SNB-TR1 strain. The tests were conducted in accordance to the reference protocols from the European Committee on Antimicrobial Susceptibility Testing. The standard microdilutions, ranging from 256 to 0.25 μg/mL were made from stock solutions prepared in DMSO (Sigma-Aldrich, France). The microplates were incubated at 35° C., and MIC values were obtained after 48 h for C. albicans, 24 h for S. aureus and 5 days for T. rubrum. The MIC values reported in Table 2 refer to the lowest concentration preventing visible growth in the wells. Vancomycin (Sigma-Aldrich, Saint-Quentin Fallavier, France) and oxacillin (Sigma-Aldrich, Saint-Quentin Fallavier, France) were used as positive controls for bacteria. Fluconazole (Sigma-Aldrich, Saint-Quentin Fallavier, France) and itraconazole (Sigma-Aldrich, Saint-Quentin Fallavier, France) were used as positive controls for fungi. All assays were conducted in duplicate.
# MRSA (ATCC 33591) = assay: MIC determination (microdilution), MRSA; type: cell-based, Staphylococcus aureus; conditions: for MIC: Staphylococcus aureus, read-out: MIC MRSA ATCC 33591
# Procedure: as §1
# [2] = system: Candida albicans (ATCC 10213); assay: MIC determination (microdilution), C. albicans; type: cell-based; conditions: for MIC: Candida albicans, ATCC10213
# Procedure: as §1
# [3] = system: Trichophyton rubrum (SNB-TR1); assay: MIC determination (microdilution), T. rubrum; type: cell-based; conditions: for MIC: Trichophyton rubrum, 120 h
# Procedure: as §1
# [4] = system: Human lung fibroblast cells (MRC-5); assay: Cytotoxicity evaluation, MTS assay; type: cell-based
# Procedure: (§2) Human lung fibroblast cells (MRC-5) were purchased from ATCC (Rockville, Md., USA) and cultured as recommended. Cell growth inhibition was determined by an MTS assay according to the manufacturer's instructions (Promega, Madison, Wis., USA). The cells were seeded in 96-well plates containing the growth medium. After 24 h of culture, samples were dissolved in DMSO (Sigma-Aldrich, France), and added to the cells (at 1 and 10 μM final concentrations). After 72 h of incubation, the reagent was added, and the absorbance at 490 nm was recorded using a plate reader. Cell viability was evaluated in comparison with untreated control cultures. Docetaxel (Taxotere) was used as positive control (IC50: 0.5 nM). All assays were conducted in triplicate.
# [5] = Cytotoxicity evaluation, MTS assay; type: cell-based; conditions: human, MRC-5 human lung fibroblast cells, 72 h, read-out: MRC5 Cell Viability
# Procedure: as §2
# [6] = system: S. epidermis MSF G + 15 (clinical strain); assay: MIC against Gram-positive bacteria; type: cell-based
# SARM NCTC 12493 = assay: MIC against Gram-positive bacteria; type: cell-based; conditions: Staphylococcus aureus, NCTC12493
# S. aureus ATCC25923 = assay: MIC against Gram-positive bacteria; type: cell-based; conditions: Staphylococcus aureus
# [7] = system: SARM G + 78 (clinical strain); assay: MIC against Gram-positive bacteria; type: cell-based; conditions: Staphylococcus aureus
# Procedure: as §1
# [8] = system: SARM G + 79 (clinical strain); assay: MIC against Gram-positive bacteria; type: cell-based; conditions: Staphylococcus aureus
# Procedure: as §1
# [9] = system: SARM G + 82 (clinical strain); assay: MIC against Gram-positive bacteria; type: cell-based; conditions: Staphylococcus aureus
# Procedure: as §1
# [10] = system: SARM G + 86 (clinical strain); assay: MIC against Gram-positive bacteria; type: cell-based; conditions: Staphylococcus aureus
# Procedure: as §1
# [11] = system: Bacillus sp. L4 210321 (clinical strain); assay: MIC against Gram-positive bacteria; type: cell-based
# [12] = system: Corynebacterium sp. L2 220321 (clinical strain); assay: MIC against Gram-positive bacteria; type: cell-based
# [13] = system: Enterococcus faecalis 29212; assay: MIC against Gram-positive bacteria; type: cell-based
# [14] = system: Enterococcus faecium van B (clinical strain); assay: MIC against Gram-positive bacteria; type: cell-based
# [15] = system: S. epidermis MSF G + 16 (clinical strain); assay: MIC against Gram-positive bacteria; type: cell-based
# [16] = system: Enterococcus faecium SI299 (clinical strain); assay: MIC against Gram-positive bacteria; type: cell-based
# [17] = system: Acinetobacter baummanii 19606; assay: MIC against Gram-negative bacteria, alone or in combination with colistin; type: cell-based
# Procedure: as §1
# (§3) Permeabilizers are compounds that weaken the outer membrane by enhance the permeability of bacterial cells to antimicrobial agents. [Farrag, H. A.; Abdallah, N.; Shehata, M. M. K.; Awad, E. M. J Biomed Sci, 2019, 26:69] Colistin a.k.a. polymyxin E were extensively used in clinical practice for Gram-negative organisms, but gradually withdrawn from the market due to reports of significant nephrotoxicity and neurotoxicity. [Mohamed, Y. F., Abou-Shleib, H. M., Khalil, A. M., El-Guink, N. M., & El-Nakeeb, M. A. Braz J Microbiol., 2016, 47, 381-388] In combinaison with various antibiotics, colistin is known to destabilize the outer membrane enhancing the antibacterial activity. In our study, we evaluated a combinaison of colistin at a sub-inhibitory concentration and Aspidin CB. […] (Table 5)
# [18] = system: Escherichia coli WT 25922; assay: as above; type: cell-based
# Procedure: as §1, §3
# [19] = ABTS radical scavenging (antioxidant) assay; type: biochemical; conditions: at 50 μg/ml
# Source text: P. mauritianum extracts were investigated for their antioxidant activities with using an ABTS [2,2′-azinobis-(3-ethylbenzothiazoline-6-sulfonate)] assay.
# [20] = human pathogenic fungi, in words
# [21] = colistin at sub-inhibitory concentration, in words
compound,measurement,setting,value
"CCCC(=O)C1=C(O)C(Cc2c(O)c(C)c(OC)c(C(=O)CCC)c2O)=C(O)C(C)(C)C1=O [Compound 1, Aspidin BB]",MIC S. aureus ATCC 29213,"[1]; Table 6 and text, 24 h",2 µg/mL
same,Antibacterial activity against S. aureus,[1]; in words,strongly active
same,MIC MRSA ATCC 33591,MRSA (ATCC 33591); Table 6 and text,1 µg/mL
same,Antibacterial activity against MRSA,MRSA (ATCC 33591); in words,strongly active
same,MIC C. albicans ATCC 10213,"[2]; Table 6, 48 h",>256 µg/mL
same,Antifungal activity against C. albicans,[2]; [20],inactive
same,MIC T. rubrum SNB-TR1,"[3]; Table 6, 5 days",>256 µg/mL
same,Antifungal activity against T. rubrum,[3]; [20],inactive
same,MRC5 Cell Viability,"[4]; 10^−5 M, 72 h",86 ± 3%
same,MRC5 Cell Viability,"[4]; 10^−6 M, 72 h",104 ± 1%
"CCCCCC(=O)C1=C(O)C(C)(C)C(O)=C(Cc2c(O)c(C)c(OC)c(C(=O)CCC)c2O)C1=O [Compound 2, Aspidin CB]",Fold stronger activity of compound 2 vs compound 1 on S. aureus strains,"[1]; S. aureus and MRSA, ratio of MICs",4-to 8 fold
same,MIC,"[1]; Table 6 and text, 24 h",0.25 µg/mL
same,MIC,MRSA (ATCC 33591); Table 6 and text,0.25 µg/mL
same,Fold more potent than vancomycin against MRSA,MRSA (ATCC 33591); ratio of MICs,16 fold
same,MIC,"[2]; Table 6, 48 h",> 256 µg/mL
same,MIC,"[3]; Table 6, 5 days",256 µg/mL
same,viability at 72 h,[5]; 10^−5 M,99 ± 2%
same,viability at 72 h,[5]; 10^−6 M,105 ± 2%
same,Cytotoxicity in MRC5 cells,"[4]; at 10^−5 M, in words",no cytotoxicity was observed
same,MIC,[6],0.5 µg/mL
same,MIC,SARM NCTC 12493,0.5 µg/mL
same,MIC,S. aureus ATCC25923,0.5 µg/mL
same,MIC,[7],0.5 µg/mL
same,MIC,[8],1 µg/mL
same,MIC,[9],0.5 µg/mL
same,MIC,[10],0.5 µg/mL
same,MIC,[11],1 µg/mL
same,MIC,[12],1 µg/mL
same,MIC,[13],8 µg/mL
same,MIC,[14],0.5 µg/mL
same,MIC,[15],2 µg/mL
same,MIC,[16],8 µg/mL
same,MIC,"[17]; Acinetobacter, 19606, single agent",> 64 µg/mL
same,Activity against A. baumanii in combination with colistin vs alone,[17]; [21],unambiguously more active
same,MIC,"[18]; Escherichia coli, WT25922, single agent",> 64 µg/mL
same,Activity against E. coli in combination with colistin vs alone,[18]; [21],unambiguously more active
"CC(=O)O[C@@]12CO[C@@H]1C[C@H](O)[C@@]1(C)C(=O)[C@H](O)C3=C(C)[C@@H](OC(=O)[C@H](O)[C@@H](NC(=O)OC(C)(C)C)c4ccccc4)C[C@@](O)([C@@H](OC(=O)c4ccccc4)[C@H]21)C3(C)C [Docetaxel, reference compound]",IC50,"[4]; Homo sapiens, MRC5, positive control, 72 h, read-out: IC50 cell growth inhibition MRC-5",0.5 nM
"OC(Cn1cncn1)(Cn1cncn1)c1ccc(F)cc1F [Fluconazole, reference compound]",MIC,"[2]; Table 6, 48 h",1 µg/mL
same,MIC,"[3]; Table 6, 5 days",4 µg/mL
"CCC(C)n1ncn(-c2ccc(N3CCN(c4ccc(OCC5COC(Cn6cncn6)(c6ccc(Cl)cc6Cl)O5)cc4)CC3)cc2)c1=O (centres unmarked) [Itraconazole, reference compound]",MIC,"[2]; Table 6, 48 h",< 0.5 µg/mL
same,MIC,"[3]; Table 6, 5 days",< 0.5 µg/mL
"Cc1onc(-c2ccccc2)c1C(=O)N[C@@H]1C(=O)N2[C@@H]1SC(C)(C)[C@@H]2C(=O)O [Oxacillin, reference compound]",MIC,"[1]; Table 6 and text, 24 h",0.25 µg/mL
Cc1c(C)c2c(c(C)c1O)CCC(C)(C(=O)O)O2 (centres unmarked) [Trolox],% ABTS inhibition,[19],98.0%
"CN[C@H](CC(C)C)C(=O)N[C@H]1C(=O)N[C@@H](CC(N)=O)C(=O)N[C@H]2C(=O)N[C@H]3C(=O)N[C@H](C(=O)N[C@H](C(=O)O)c4cc(O)cc(O)c4-c4cc3ccc4O)[C@H](O)c3ccc(c(Cl)c3)Oc3cc2cc(c3O[C@@H]2O[C@H](CO)[C@@H](O)[C@H](O)[C@H]2O[C@H]2C[C@](C)(N)[C@H](O)[C@H](C)O2)Oc2ccc(cc2Cl)[C@H]1O [Vancomycin, reference compound]",MIC,MRSA (ATCC 33591),4 µg/mL
Colistin [reference compound],MIC Acinetobacter baummanii 19606,[17]; single agent,4 µg/mL
same,MIC Escherichia coli WT 25922,[18]; single agent,1 µg/mL
Tocopherol,% ABTS inhibition,[19],97.6%
